Data from ChEMBL document CHEMBL1909046, “DrugMatrix in vitro pharmacology data”.

Tests used:
[1] = DRUGMATRIX: ATPase, Na+/K+ enzyme inhibition (substrate: ATP); assay type: tissue-based, Sus scrofa, Heart; settings: Not Active = under 50% inhibition at 10 µM
Carbonic anhydrase 2 = Carbonic anhydrase 2 (Homo sapiens, UniProt P00918); assay: DRUGMATRIX: Carbonic Anhydrase II enzyme inhibition (substrate: 4-Nitrophenyl acetate (4-NPA)); assay type: tissue-based, Erythrocyte; settings: erythrocyte; Not Active = under 50% inhibition at 10 µM
[2] = target: T1, Cholecystokinin receptor type A (Homo sapiens, UniProt P32238); assay type: cell membranes, Membrane; settings: 1321-n1; note: in other assays of this panel Not Active means under 50% inhibition at 10 µM
T1 sequence (P32238 whole entry): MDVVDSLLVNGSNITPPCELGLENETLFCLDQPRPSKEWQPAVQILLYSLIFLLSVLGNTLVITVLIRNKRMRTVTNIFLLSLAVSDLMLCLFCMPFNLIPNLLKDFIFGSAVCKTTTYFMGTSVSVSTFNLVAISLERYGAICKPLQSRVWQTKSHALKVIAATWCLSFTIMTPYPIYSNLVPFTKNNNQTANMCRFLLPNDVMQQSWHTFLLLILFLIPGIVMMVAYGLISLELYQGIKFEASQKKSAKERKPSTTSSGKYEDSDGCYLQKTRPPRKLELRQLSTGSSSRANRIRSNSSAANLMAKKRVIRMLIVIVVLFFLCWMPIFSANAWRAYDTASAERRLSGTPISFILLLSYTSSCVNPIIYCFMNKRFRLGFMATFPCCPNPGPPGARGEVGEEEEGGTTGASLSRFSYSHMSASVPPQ

[3] = DRUGMATRIX: GABAA, Flunitrazepam, Central radioligand binding (ligand: [3H] Flunitrazepam); assay type: cell membranes, Rattus norvegicus, Wistar, Brain, Membrane; settings: Not Active = under 50% inhibition at 10 µM
[4] = target: T2, Cysteinyl leukotriene receptor 1 (Homo sapiens, UniProt Q9Y271); assay type: cell membranes, CHO-K1, Membrane; settings: cho-k1; note: in other assays of this panel Not Active means under 50% inhibition at 10 µM
T2 sequence (Q9Y271 whole entry): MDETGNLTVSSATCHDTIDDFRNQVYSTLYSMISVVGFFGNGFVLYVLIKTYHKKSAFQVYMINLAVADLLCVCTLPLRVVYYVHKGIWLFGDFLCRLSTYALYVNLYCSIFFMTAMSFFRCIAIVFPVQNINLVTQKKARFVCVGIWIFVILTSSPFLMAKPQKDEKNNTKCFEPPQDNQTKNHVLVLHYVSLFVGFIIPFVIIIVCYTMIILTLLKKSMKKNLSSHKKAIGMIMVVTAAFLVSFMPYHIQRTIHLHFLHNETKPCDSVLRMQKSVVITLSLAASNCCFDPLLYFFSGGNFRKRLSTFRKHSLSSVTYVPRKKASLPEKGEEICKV

[5] = target: Epidermal growth factor receptor (Homo sapiens, UniProt P00533); assay: DRUGMATRIX: Protein Tyrosine Kinase, EGF Receptor enzyme inhibition (substrate: Poly(Glu:Tyr)); assay type: cell-based, Insect cells; settings: insect cells; Not Active = under 50% inhibition at 10 µM
Cytochrome P450 2C9 = Cytochrome P450 2C9 (Homo sapiens, UniProt P11712); settings: bti-tn-5b1-4; note: in other assays of this panel Not Active means under 50% inhibition at 10 µM
Chain of Cytochrome P450 2C9 (P11712 whole entry): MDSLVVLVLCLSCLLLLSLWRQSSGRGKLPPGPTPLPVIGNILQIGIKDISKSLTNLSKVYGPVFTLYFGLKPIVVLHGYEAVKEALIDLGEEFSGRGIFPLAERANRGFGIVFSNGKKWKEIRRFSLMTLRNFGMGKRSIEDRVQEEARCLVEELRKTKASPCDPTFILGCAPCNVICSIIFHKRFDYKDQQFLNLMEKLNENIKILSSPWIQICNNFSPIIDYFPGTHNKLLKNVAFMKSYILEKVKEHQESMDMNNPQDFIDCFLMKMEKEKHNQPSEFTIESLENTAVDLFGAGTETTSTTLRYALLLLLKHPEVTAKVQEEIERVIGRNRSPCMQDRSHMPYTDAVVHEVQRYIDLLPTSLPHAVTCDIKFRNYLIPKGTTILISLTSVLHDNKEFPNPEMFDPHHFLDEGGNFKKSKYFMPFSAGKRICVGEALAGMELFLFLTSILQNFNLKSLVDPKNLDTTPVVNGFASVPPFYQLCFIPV

Chain of Epidermal growth factor receptor (P00533 whole entry): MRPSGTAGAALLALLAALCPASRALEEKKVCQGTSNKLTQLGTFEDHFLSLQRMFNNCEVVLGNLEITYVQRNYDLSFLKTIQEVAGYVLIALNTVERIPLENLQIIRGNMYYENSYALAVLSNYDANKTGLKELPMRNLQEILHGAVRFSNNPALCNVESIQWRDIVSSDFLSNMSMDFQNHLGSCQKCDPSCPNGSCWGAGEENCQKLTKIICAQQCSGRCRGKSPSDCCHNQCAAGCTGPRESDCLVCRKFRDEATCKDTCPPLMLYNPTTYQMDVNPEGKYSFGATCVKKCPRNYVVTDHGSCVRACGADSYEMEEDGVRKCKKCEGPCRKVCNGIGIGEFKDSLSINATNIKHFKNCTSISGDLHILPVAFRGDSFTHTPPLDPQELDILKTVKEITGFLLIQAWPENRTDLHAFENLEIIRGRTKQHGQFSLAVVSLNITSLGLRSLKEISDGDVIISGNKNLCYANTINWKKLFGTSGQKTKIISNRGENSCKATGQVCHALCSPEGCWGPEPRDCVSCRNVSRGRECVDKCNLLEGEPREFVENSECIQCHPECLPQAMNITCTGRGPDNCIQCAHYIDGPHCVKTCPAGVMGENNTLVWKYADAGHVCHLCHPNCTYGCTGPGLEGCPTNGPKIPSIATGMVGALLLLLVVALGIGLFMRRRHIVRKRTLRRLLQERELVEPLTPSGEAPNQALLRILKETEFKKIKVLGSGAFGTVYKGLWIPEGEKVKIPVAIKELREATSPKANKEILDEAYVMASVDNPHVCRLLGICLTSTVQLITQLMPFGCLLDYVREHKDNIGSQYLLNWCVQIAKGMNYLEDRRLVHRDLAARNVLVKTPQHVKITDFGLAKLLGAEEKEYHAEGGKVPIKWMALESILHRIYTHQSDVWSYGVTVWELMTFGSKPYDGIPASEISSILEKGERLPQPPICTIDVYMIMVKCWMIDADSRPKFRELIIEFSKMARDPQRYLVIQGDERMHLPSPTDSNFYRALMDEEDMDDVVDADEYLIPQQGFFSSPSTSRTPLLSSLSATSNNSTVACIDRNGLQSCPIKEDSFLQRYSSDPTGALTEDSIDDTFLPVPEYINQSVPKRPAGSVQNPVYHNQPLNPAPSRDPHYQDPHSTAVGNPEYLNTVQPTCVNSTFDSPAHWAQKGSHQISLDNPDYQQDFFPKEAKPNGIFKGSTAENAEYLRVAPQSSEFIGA

O=S(=O)([O-])CCS.[Na+] [MESNA]
Not Active: IC50 [1] | Ki [1] | IC50 (Carbonic anhydrase 2) | IC50 [2] | IC50 [3] | Ki [3] | IC50 [4] | IC50 [5] | IC50 (Cytochrome P450 2C9) | Ki (Cytochrome P450 2C9)

O=C(O)Cc1ccccc1Nc1c(Cl)cccc1Cl [DICLOFENAC]
Not Active: IC50 [1] | Ki [1] | IC50 (Carbonic anhydrase 2) | IC50 [2] | IC50 [3] | Ki [3] | IC50 [4] | IC50 [5] | IC50 (Cytochrome P450 2C9) | Ki (Cytochrome P450 2C9)

CCC1=C[C@@H]2CN(C1)Cc1c([nH]c3ccccc13)[C@@](C(=O)OC)(c1cc3c(cc1OC)N(C)[C@H]1[C@@](O)(C(=O)OC)[C@H](OC(C)=O)[C@]4(CC)C=CCN5CC[C@]31[C@@H]54)C2 [VINORELBINE]
Not Active: IC50 [1] | Ki [1] | IC50 (Carbonic anhydrase 2) | IC50 [2] | IC50 [3] | Ki [3] | IC50 [4] | IC50 [5] | IC50 (Cytochrome P450 2C9) | Ki (Cytochrome P450 2C9)

CCOC(=O)[C@H](CCc1ccccc1)N[C@H]1CCc2ccccc2N(CC(=O)O)C1=O [BENAZEPRIL]
Not Active: IC50 [1] | Ki [1] | IC50 (Carbonic anhydrase 2) | IC50 [2] | IC50 [3] | Ki [3] | IC50 [4] | IC50 [5] | IC50 (Cytochrome P450 2C9) | Ki (Cytochrome P450 2C9)

CC(=O)Nc1c(I)c(NC(C)=O)c(I)c(C(=O)O)c1I [DIATRIZOIC ACID]
Not Active: IC50 [1] | Ki [1] | IC50 (Carbonic anhydrase 2) | IC50 [2] | IC50 [3] | Ki [3] | IC50 [4] | IC50 [5] | IC50 (Cytochrome P450 2C9) | Ki (Cytochrome P450 2C9)

O=C1CC[C@H](N2C(=O)c3ccccc3C2=O)C(=O)N1
Not Active: IC50 [1] | Ki [1] | IC50 (Carbonic anhydrase 2) | IC50 [2] | IC50 [3] | Ki [3] | IC50 [4] | IC50 [5] | IC50 (Cytochrome P450 2C9) | Ki (Cytochrome P450 2C9)

CC(C)Cc1ccc(C(C)C(=O)O)cc1 (stereo not given) [IBUPROFEN]
Not Active: IC50 [1] | Ki [1] | IC50 (Carbonic anhydrase 2) | IC50 [2] | IC50 [3] | Ki [3] | IC50 [4] | IC50 [5] | IC50 (Cytochrome P450 2C9) | Ki (Cytochrome P450 2C9)

CCCCN1CCCCC1C(=O)Nc1c(C)cccc1C.Cl (stereo not given) [BUPIVACAINE HYDROCHLORIDE]
Not Active: IC50 [1] | Ki [1] | IC50 (Carbonic anhydrase 2) | IC50 [2] | IC50 [3] | Ki [3] | IC50 [4] | IC50 [5] | IC50 (Cytochrome P450 2C9) | Ki (Cytochrome P450 2C9)
